Columns and labels:
Test in all cases: KINOMEscan kinase binding assay
[1] = biological target: T1, 384 kinases from the human genome (Homo sapiens, UniProt O00329); details: kinase PIK3CD (Entrez PIK3CD)
T1 construct: purchased Eurofin/DiscoverX
Source text: (§1) We reasoned that because internalizing AT1R and its targeting to intracellular compartments can support continued MAPK signaling, and since 21 inhibits receptor internalization, it should also impede to some extent ERK1/2 activation. […] Receptor-mediated ERK1/2 signaling can involve upstream kinases such as PKC, BRAF, and MEK1[35],[36]. […] To exclude other kinases potentially involved in ERK1/2 and Akt activation as targets of 21, we ran a kinase binding assay (KINOMEscan™) on 384 kinases from the human genome. Remarkably, a very high selectivity score S(10) of 0.008 was found (Supplementary Data 3).
(§2) The chemical library used for initial screening was from Chembridge DiverSet™ (60,000 compounds), Maybridge HitFinder™ (16,000 compounds), Maybridge (selected, 16,000 compounds), SPECS (selected, 16000 compounds), Microsource Discovery Spectrum (2000 compounds), Biomol (natural products, 500 compounds), Prestwick (commercialized products, 1120 compounds), SIGMA LopacTM (1280 compounds) and internal collection (synthesized at Université de Montréal-IRIC, ~4000 compounds). Compounds were all assigned an Université de Montréal number (UM) for internal use. Screen was performed at IRIC HTS facility. KINOMEscan™ profiling was serviced by Eurofin/DiscoverX (San Diego, USA).
(§3) Description of Additional Supplementary Files […]
(§4) File Name: Supplementary Data 3
(§5) Description: KINOMEscan results. Compound 21’s effect was tested on 384 kinases. Data represent kinases binding to their ligands in presence of 10 µM of 21, as compared to DMSO (100%). Results are from one experiment and represent the average of duplicates. Three kinases (FLT3, KIT, and PDGFRB) out of 384 were more than 90% affected (selectivity score S(10) of 0.008). […]

[2] = biological target: T2, 384 kinases from the human genome (Homo sapiens, UniProt O15264); details: kinase p38-delta (Entrez MAPK13)
T2 construct: purchased Eurofin/DiscoverX
T2 sequence (O15264 whole entry): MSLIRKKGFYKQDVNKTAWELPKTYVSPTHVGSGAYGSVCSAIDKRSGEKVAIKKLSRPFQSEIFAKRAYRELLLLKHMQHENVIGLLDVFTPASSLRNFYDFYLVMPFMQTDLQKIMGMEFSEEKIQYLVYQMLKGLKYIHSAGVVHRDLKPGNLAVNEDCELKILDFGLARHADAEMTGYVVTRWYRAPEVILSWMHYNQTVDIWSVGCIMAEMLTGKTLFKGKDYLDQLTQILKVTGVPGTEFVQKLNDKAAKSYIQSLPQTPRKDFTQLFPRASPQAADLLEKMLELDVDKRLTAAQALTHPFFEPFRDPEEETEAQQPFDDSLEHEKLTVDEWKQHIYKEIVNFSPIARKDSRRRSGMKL
Source text: as §1, §2, §3, §4, §5

[3] = biological target: T3, 384 kinases from the human genome (Homo sapiens, UniProt O75385); details: kinase ULK1 (Entrez ULK1)
T3 construct: purchased Eurofin/DiscoverX
Source text: as §1, §2, §3, §4, §5

[4] = biological target: T4, 384 kinases from the human genome (Homo sapiens, UniProt O75747); details: kinase PIK3C2G (Entrez PIK3C2G)
T4 construct: purchased Eurofin/DiscoverX
Source text: as §1, §2, §3, §4, §5

[5] = biological target: T5, 384 kinases from the human genome (Homo sapiens, UniProt P19525); details: kinase PRKR (Entrez EIF2AK2)
T5 construct: purchased Eurofin/DiscoverX
Source text: as §1, §2, §3, §4, §5

[6] = biological target: T6, 384 kinases from the human genome (Homo sapiens, UniProt P29317); details: kinase EPHA2 (Entrez EPHA2)
T6 construct: purchased Eurofin/DiscoverX
T6 sequence (P29317 24-976): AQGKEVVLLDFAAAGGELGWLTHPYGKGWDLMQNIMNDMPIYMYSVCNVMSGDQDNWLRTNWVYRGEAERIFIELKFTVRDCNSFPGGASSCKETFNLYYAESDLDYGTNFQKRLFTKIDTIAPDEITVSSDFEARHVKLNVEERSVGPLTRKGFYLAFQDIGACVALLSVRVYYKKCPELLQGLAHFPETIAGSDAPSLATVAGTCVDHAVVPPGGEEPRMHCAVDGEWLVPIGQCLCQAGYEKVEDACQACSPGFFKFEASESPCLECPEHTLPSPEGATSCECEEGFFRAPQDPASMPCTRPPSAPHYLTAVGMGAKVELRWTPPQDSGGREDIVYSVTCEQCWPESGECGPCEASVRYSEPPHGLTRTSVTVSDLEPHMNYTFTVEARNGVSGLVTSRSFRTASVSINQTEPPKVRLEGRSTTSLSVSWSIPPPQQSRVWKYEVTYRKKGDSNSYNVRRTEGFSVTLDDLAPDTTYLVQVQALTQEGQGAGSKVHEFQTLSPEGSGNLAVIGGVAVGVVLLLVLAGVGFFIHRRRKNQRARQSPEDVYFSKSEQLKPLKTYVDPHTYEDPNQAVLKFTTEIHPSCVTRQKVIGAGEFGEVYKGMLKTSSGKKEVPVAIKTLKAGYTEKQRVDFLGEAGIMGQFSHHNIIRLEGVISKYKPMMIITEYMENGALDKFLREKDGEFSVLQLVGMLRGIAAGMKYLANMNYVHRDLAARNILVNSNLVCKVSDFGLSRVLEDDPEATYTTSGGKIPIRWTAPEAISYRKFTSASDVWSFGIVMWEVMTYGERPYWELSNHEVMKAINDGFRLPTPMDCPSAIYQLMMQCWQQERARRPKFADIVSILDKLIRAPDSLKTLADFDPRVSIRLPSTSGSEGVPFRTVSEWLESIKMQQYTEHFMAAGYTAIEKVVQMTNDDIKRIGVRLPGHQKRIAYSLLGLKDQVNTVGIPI
Source text: as §1, §2, §3, §4, §5

[7] = biological target: T7, 384 kinases from the human genome (Homo sapiens, UniProt P29320); details: kinase EPHA3 (Entrez EPHA3)
T7 construct: purchased Eurofin/DiscoverX
T7 sequence (P29320 21-983): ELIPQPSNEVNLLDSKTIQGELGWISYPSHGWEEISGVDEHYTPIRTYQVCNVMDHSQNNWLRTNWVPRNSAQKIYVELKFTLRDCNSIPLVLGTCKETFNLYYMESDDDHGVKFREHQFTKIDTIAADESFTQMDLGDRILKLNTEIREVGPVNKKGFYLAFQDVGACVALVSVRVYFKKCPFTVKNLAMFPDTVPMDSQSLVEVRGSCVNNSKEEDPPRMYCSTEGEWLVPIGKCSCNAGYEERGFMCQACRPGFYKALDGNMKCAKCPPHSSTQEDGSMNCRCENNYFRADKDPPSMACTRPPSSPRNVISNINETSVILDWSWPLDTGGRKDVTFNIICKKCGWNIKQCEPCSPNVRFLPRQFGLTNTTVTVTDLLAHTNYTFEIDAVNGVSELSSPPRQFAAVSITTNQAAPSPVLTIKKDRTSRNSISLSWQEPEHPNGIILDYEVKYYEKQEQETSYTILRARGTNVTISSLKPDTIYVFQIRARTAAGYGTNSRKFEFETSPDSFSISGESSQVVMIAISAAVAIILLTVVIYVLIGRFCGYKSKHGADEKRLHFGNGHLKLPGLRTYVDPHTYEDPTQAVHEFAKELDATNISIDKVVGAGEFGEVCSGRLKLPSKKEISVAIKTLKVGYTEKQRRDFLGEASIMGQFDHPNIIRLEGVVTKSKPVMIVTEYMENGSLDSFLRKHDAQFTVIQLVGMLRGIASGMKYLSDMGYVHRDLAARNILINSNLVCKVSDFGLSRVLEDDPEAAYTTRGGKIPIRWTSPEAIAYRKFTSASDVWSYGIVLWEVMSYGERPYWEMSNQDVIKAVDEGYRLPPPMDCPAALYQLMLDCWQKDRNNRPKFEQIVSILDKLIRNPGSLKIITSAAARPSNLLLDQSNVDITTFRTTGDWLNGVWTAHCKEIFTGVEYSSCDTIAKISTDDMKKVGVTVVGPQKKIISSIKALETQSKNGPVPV
Source text: as §1, §2, §3, §4, §5

[8] = biological target: T8, 384 kinases from the human genome (Homo sapiens, UniProt P35968); details: kinase VEGFR2 (Entrez KDR)
T8 construct: purchased Eurofin/DiscoverX
Source text: as §1, §2, §3, §4, §5

[9] = biological target: T9, 384 kinases from the human genome (Homo sapiens, UniProt P54764); details: kinase EPHA4 (Entrez EPHA4)
T9 construct: purchased Eurofin/DiscoverX
Source text: as §1, §2, §3, §4, §5

[10] = biological target: T10, 384 kinases from the human genome (Homo sapiens, UniProt Q13470); details: kinase TNK1 (Entrez TNK1)
T10 construct: purchased Eurofin/DiscoverX
T10 sequence (Q13470 whole entry): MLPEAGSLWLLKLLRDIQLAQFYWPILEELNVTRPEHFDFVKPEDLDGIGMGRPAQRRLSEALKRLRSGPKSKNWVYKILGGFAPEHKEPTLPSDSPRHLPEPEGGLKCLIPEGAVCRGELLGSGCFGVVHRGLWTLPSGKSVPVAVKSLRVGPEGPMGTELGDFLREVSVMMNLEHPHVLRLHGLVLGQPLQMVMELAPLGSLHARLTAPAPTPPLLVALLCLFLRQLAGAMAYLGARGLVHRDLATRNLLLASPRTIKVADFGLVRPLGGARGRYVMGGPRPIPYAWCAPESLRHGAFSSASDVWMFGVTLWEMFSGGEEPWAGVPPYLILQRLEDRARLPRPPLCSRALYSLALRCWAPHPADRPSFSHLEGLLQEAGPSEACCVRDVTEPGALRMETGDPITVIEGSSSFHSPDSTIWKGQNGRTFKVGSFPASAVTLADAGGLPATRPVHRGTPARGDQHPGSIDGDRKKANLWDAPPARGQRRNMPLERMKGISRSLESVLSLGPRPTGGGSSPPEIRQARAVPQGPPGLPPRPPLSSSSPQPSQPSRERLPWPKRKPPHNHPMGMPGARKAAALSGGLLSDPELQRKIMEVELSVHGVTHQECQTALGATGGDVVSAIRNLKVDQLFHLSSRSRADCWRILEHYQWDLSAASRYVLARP
Source text: as §1, §2, §3, §4, §5

[11] = biological target: T11, 384 kinases from the human genome (Homo sapiens, UniProt Q13555); details: kinase CAMK2G (Entrez CAMK2G)
T11 construct: purchased Eurofin/DiscoverX
Source text: as §1, §2, §3, §4, §5

[12] = biological target: T12, 384 kinases from the human genome (Homo sapiens, UniProt Q14012); details: kinase CAMK1 (Entrez CAMK1)
T12 construct: purchased Eurofin/DiscoverX
Source text: as §1, §2, §3, §4, §5

[13] = biological target: T13, 384 kinases from the human genome (Homo sapiens, UniProt Q15835); details: kinase GRK1 (Entrez GRK1)
T13 construct: purchased Eurofin/DiscoverX
Source text: as §1, §2, §3, §4, §5

[14] = biological target: T14, 384 kinases from the human genome (Homo sapiens, UniProt Q59H18); details: kinase TNNI3K (Entrez TNNI3K)
T14 construct: purchased Eurofin/DiscoverX
Source text: as §1, §2, §3, §4, §5

[15] = biological target: T15, 384 kinases from the human genome (Homo sapiens, UniProt Q8IVW4); details: kinase CDKL3 (Entrez CDKL3)
T15 construct: purchased Eurofin/DiscoverX
Source text: as §1, §2, §3, §4, §5

[16] = biological target: T16, 384 kinases from the human genome (Homo sapiens, UniProt Q8N4C8); details: kinase MINK (Entrez MINK1)
T16 construct: purchased Eurofin/DiscoverX
T16 sequence (Q8N4C8 whole entry): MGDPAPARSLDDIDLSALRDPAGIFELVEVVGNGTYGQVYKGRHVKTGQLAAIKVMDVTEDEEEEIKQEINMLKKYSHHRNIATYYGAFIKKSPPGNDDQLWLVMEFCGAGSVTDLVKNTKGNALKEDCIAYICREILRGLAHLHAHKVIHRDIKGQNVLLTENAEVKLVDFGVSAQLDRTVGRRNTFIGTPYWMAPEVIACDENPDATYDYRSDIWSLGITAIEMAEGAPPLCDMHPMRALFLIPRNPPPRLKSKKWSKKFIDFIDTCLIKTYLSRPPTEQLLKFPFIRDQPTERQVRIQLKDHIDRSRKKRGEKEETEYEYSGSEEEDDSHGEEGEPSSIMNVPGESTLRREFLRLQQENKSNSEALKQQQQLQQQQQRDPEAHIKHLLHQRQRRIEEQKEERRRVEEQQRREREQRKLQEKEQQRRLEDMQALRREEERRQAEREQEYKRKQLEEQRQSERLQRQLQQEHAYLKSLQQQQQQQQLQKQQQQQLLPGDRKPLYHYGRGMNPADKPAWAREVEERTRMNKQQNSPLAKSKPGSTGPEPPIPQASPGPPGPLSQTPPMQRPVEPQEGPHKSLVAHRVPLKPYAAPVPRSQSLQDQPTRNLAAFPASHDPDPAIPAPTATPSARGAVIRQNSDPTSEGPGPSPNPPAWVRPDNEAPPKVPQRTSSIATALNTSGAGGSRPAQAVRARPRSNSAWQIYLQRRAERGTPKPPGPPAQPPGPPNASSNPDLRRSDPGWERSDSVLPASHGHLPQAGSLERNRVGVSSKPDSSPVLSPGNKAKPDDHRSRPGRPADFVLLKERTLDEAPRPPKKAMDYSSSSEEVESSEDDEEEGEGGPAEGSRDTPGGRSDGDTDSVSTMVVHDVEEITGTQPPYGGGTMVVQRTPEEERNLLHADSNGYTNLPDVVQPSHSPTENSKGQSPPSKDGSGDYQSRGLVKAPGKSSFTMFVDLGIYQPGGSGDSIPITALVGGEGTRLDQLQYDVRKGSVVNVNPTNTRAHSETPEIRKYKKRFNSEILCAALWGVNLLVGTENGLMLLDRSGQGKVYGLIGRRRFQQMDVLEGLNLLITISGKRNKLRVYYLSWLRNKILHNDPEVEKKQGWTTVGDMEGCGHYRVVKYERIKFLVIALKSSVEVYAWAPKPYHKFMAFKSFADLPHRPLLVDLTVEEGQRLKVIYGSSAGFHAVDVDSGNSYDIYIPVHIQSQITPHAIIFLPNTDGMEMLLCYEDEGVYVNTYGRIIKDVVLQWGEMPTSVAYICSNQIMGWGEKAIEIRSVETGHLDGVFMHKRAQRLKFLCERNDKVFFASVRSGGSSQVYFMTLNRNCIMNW
Source text: as §1, §2, §3, §4, §5

[17] = biological target: T17, 384 kinases from the human genome (Homo sapiens, UniProt Q8NEB9); details: kinase VPS34 (Entrez PIK3C3)
T17 construct: purchased Eurofin/DiscoverX
Source text: as §1, §2, §3, §4, §5

[18] = biological target: T18, 384 kinases from the human genome (Homo sapiens, UniProt Q8TBX8); details: kinase PIP5K2C (Entrez PIP4K2C)
T18 construct: purchased Eurofin/DiscoverX
Source text: as §1, §2, §3, §4, §5

[19] = biological target: T19, 384 kinases from the human genome (Homo sapiens, UniProt Q8TDX7); details: kinase NEK7 (Entrez NEK7)
T19 construct: purchased Eurofin/DiscoverX
Source text: as §1, §2, §3, §4, §5

[20] = biological target: T20, 384 kinases from the human genome (Homo sapiens, UniProt Q8WXR4); details: kinase MYO3B (Entrez MYO3B)
T20 construct: purchased Eurofin/DiscoverX
Source text: as §1, §2, §3, §4, §5

[21] = biological target: T21, 384 kinases from the human genome (Homo sapiens, UniProt Q99759); details: kinase MAP3K3 (Entrez MAP3K3)
T21 construct: purchased Eurofin/DiscoverX
Source text: as §1, §2, §3, §4, §5

[22] = biological target: T22, 384 kinases from the human genome (Homo sapiens, UniProt Q9H422); details: kinase HIPK3 (Entrez HIPK3)
T22 construct: purchased Eurofin/DiscoverX
Source text: as §1, §2, §3, §4, §5

[23] = biological target: T23, 384 kinases from the human genome (Homo sapiens, UniProt Q9NRH2); details: kinase SNRK (Entrez SNRK)
T23 construct: purchased Eurofin/DiscoverX
Source text: as §1, §2, §3, §4, §5

[24] = biological target: T24, 384 kinases from the human genome (Homo sapiens, UniProt Q9NRP7); details: kinase STK36 (Entrez STK36)
T24 construct: purchased Eurofin/DiscoverX
Source text: as §1, §2, §3, §4, §5

[25] = biological target: T25, 384 kinases from the human genome (Homo sapiens, UniProt Q9UPE1); details: kinase SRPK3 (Entrez SRPK3)
T25 construct: purchased Eurofin/DiscoverX
T25 sequence (Q9UPE1 whole entry): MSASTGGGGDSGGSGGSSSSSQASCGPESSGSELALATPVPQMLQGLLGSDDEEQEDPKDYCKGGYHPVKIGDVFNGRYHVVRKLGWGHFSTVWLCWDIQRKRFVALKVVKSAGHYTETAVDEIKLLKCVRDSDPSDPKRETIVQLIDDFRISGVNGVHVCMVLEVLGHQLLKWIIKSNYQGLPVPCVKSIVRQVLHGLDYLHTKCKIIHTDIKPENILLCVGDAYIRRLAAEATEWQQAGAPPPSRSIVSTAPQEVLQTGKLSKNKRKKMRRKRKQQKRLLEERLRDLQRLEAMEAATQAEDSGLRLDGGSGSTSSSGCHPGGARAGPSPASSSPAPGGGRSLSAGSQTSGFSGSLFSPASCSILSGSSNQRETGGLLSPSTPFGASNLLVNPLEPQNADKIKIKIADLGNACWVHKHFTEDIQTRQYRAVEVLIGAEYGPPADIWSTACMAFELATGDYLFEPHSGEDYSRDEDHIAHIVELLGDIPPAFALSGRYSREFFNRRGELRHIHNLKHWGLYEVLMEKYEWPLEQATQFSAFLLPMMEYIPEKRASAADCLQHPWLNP
Source text: as §1, §2, §3, §4, §5

[26] = biological target: T26, 384 kinases from the human genome (Homo sapiens, UniProt Q9Y2K2); details: kinase QSK (Entrez KIAA0999)
T26 construct: purchased Eurofin/DiscoverX
Source text: as §1, §2, §3, §4, §5

For CC(C)C(=O)N1CCN(c2ccc(NC(=O)c3cc4ccccc4o3)cc2Cl)CC1 [Compound 21], the “Percent Control” value [1] was 100%, the “Percent Control” value [2] was 88% and the “Percent Control” value [3] was 97%. The “Percent Control” value [4] was 100%, the “Percent Control” value [5] was 65% and the “Percent Control” value [6] was 40%. For the same molecule, the “Percent Control” value [7] was 91%, the “Percent Control” value [8] was 93% and the “Percent Control” value [9] was 95%. For the same molecule, the “Percent Control” value [10] was 75%, the “Percent Control” value [11] was 98% and the “Percent Control” value [12] was 95%. The “Percent Control” value [13] was 94%, the “Percent Control” value [14] was 70% and the “Percent Control” value [15] was 100%. For the same molecule, the “Percent Control” value [16] was 63%, the “Percent Control” value [17] was 100% and the “Percent Control” value [18] was 65%. The “Percent Control” value [19] was 100%, the “Percent Control” value [20] was 58% and the “Percent Control” value [21] was 75%. For the same molecule, the “Percent Control” value [22] was 93%, the “Percent Control” value [23] was 78% and the “Percent Control” value [24] was 88%. For the same molecule, the “Percent Control” value [25] was 100% and the “Percent Control” value [26] was 100%.

Source: publication PMC8333425, “Discovery of a dual Ras and ARF6 inhibitor from a GPCR endocytosis screen” (Nature Communications, 2021)
